Measured values from the NIST ThermoML archive (doi:10.1021/acs.jced.9b00536).

Assay: refractive index (Na D-line) (dimensionless); wn = mass fraction of the nth substance listed
Details: 100 kPa, Liquid, Standard Abbe refractometry

[Na+].[OH-] [sodium hydroxide] + O
refractive index
Details | 283.15 K | 288.15 K | 293.15 K | 298.15 K | 303.15 K | 308.15 K
w1 = 0.2 | 1.3856 | 1.3847 | 1.3838 | 1.3829 | 1.382 | 1.3811
w1 = 0.21 | 1.3875 | 1.3866 | 1.3858 | 1.3849 | 1.384 | 1.3832
w1 = 0.22 | 1.3904 | 1.3895 | 1.3886 | 1.3878 | 1.3869 | 1.386
w1 = 0.23 | 1.3922 | 1.3912 | 1.3903 | 1.3893 | 1.3882 | 1.3874
w1 = 0.24 | 1.3941 | 1.3932 | 1.3923 | 1.3914 | 1.3905 | 1.3896
w1 = 0.25 | 1.3969 | 1.3961 | 1.3952 | 1.3943 | 1.3934 | 1.3925
w1 = 0.26 | 1.3991 | 1.3982 | 1.3974 | 1.3965 | 1.3956 | 1.3947
w1 = 0.27 | 1.4009 | 1.4 | 1.3991 | 1.3982 | 1.3973 | 1.3964
w1 = 0.28 | 1.4028 | 1.4019 | 1.4011 | 1.4002 | 1.3993 | 1.3983
w1 = 0.29 | 1.4053 | 1.4044 | 1.4035 | 1.4026 | 1.4017 | 1.4008
w1 = 0.3 | 1.4066 | 1.4056 | 1.4048 | 1.4038 | 1.4029 | 1.402
w1 = 0.31 | 1.4087 | 1.4077 | 1.4068 | 1.4059 | 1.405 | 1.4041
w1 = 0.32 | 1.4099 | 1.4091 | 1.4081 | 1.4073 | 1.4063 | 1.4055
w1 = 0.33 | 1.4115 | 1.4107 | 1.4097 | 1.4088 | 1.4079 | 1.407
w1 = 0.34 | 1.4141 | 1.4132 | 1.4123 | 1.4114 | 1.4105 | 1.4096
w1 = 0.35 | 1.416 | 1.4151 | 1.4142 | 1.4133 | 1.4123 | –
w1 = 0.36 | 1.4175 | 1.4167 | 1.4158 | 1.4148 | 1.4139 | –
w1 = 0.37 | 1.419 | 1.4181 | 1.4172 | 1.4163 | 1.4154 | –
w1 = 0.38 | 1.4209 | 1.42 | 1.4191 | 1.4182 | 1.4173 | –
w1 = 0.39 | 1.4226 | 1.4217 | 1.4208 | 1.4199 | 1.4189 | –
w1 = 0.4 | 1.4241 | 1.4232 | 1.4223 | 1.4214 | 1.4205 | –
w1 = 0.41 | 1.4252 | 1.4243 | 1.4234 | 1.4225 | 1.4215 | –
w1 = 0.42 | 1.4269 | 1.426 | 1.425 | 1.4241 | 1.4231 | –
w1 = 0.43 | 1.4281 | 1.4272 | 1.4263 | 1.4254 | 1.4245 | –
w1 = 0.44 | 1.4293 | 1.4284 | 1.4274 | 1.4265 | 1.4255 | –
w1 = 0.45 | 1.4303 | 1.4295 | 1.4286 | 1.4276 | 1.4267 | –
w1 = 0.46 | 1.4321 | 1.4312 | 1.4303 | 1.4293 | 1.4284 | –
w1 = 0.47 | 1.4332 | 1.4323 | 1.4314 | 1.4304 | 1.4294 | –
w1 = 0.48 | 1.4347 | 1.4338 | 1.4329 | 1.432 | 1.4311 | –
w1 = 0.49 | 1.4356 | 1.4347 | 1.4338 | 1.4328 | 1.4318 | –
w1 = 0.5 | 1.4365 | 1.4355 | 1.4346 | 1.4337 | 1.4328 | –
